Results published in US20220009920A1 (GB005, Inc., priority 2020, published 2022).

How the values were obtained:
Experiment in all cases: Large panel kinase profiling
Type in all cases: biochemical
Details in all cases: 1 μM test article, 1 mM ATP
[1] = target: EPHA2 (Homo sapiens, UniProt P29317)
Method in brief: (§1)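 Reactions contain 1 mM ATP and 1 μM test article; the CSox peptide sensor reports phosphorylation as fluorescence gain. Temperature is held at 30° C. while signal (360 nm excitation, 485 nm emission) is recorded every 1 min.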

[2] = target: T1, CLK1 (Homo sapiens, UniProt P49759)
T1 construct: AssayQuant Technologies, Inc. (service laboratory)
Method in brief: as §1

[3] = target: T2, EPHB3 (Homo sapiens, UniProt P54753)
T2 sequence (P54753 34-998): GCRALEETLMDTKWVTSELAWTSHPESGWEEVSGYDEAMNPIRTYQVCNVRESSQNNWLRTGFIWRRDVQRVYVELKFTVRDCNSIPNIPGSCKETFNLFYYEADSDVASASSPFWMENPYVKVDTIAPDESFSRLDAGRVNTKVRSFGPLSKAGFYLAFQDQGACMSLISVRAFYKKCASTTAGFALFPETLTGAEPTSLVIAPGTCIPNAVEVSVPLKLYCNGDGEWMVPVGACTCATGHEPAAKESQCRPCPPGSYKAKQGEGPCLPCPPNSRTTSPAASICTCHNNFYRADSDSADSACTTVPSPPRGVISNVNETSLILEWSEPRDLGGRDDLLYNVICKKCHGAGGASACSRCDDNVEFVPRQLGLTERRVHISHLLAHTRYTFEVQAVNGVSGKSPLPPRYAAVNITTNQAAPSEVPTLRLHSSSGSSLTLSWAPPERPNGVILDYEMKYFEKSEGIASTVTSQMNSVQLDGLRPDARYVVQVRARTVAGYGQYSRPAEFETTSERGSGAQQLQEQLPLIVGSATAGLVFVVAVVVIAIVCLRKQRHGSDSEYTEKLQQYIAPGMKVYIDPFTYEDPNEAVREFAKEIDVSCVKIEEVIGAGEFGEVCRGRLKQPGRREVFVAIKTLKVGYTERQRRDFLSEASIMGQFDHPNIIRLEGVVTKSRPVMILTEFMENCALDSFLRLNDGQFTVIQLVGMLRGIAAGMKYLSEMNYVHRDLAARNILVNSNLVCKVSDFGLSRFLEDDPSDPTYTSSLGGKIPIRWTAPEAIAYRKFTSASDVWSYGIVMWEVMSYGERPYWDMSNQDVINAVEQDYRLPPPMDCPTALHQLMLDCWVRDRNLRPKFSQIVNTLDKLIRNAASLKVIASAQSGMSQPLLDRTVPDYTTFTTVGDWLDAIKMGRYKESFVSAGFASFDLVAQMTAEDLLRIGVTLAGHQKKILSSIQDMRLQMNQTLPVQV
Method in brief: as §1

[4] = target: T3, CHEK1/CHK1 (Homo sapiens, UniProt O14757)
T3 construct: AssayQuant Technologies, Inc. (ran the panel)
T3 sequence (O14757 1-476): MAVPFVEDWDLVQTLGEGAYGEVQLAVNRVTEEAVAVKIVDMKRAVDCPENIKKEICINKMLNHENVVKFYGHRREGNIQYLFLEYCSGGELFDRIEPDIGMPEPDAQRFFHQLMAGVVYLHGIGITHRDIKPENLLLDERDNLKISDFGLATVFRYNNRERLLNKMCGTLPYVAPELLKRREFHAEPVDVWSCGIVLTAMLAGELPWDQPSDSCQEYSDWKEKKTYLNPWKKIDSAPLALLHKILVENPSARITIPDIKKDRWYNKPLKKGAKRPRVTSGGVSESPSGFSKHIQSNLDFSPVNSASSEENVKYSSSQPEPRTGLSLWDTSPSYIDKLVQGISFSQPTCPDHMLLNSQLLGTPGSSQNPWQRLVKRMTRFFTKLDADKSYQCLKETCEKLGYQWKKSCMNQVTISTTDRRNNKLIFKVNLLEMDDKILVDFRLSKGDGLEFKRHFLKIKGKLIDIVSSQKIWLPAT
Method in brief: as §1

[5] = target: T4, MAP3K9 (Homo sapiens, UniProt P80192)
T4 construct: AssayQuant Technologies, Inc. (service provider)
Method in brief: as §1

[6] = target: PASK (Homo sapiens, UniProt Q96RG2)
Method in brief: as §1

[7] = target: T5, NEK3 (Homo sapiens, UniProt P51956)
T5 construct: AssayQuant Technologies, Inc. (assay service)
T5 sequence (P51956 1-506): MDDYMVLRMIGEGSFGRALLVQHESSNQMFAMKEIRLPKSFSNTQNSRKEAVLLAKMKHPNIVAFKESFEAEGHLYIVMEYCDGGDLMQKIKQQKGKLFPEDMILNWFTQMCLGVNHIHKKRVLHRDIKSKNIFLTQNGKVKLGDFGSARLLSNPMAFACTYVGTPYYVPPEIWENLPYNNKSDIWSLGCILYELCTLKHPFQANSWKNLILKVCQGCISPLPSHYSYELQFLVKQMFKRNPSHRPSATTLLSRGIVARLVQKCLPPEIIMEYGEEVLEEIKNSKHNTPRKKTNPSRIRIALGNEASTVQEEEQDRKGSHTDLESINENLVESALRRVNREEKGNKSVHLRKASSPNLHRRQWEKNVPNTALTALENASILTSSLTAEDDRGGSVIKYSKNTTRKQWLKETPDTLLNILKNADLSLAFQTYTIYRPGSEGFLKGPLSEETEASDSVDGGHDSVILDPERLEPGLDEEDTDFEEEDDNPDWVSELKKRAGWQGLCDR
Method in brief: as §1

[8] = target: T6, JAK2(JH1JH2) (Homo sapiens, UniProt O60674)
T6 construct: JAK2(JH1JH2)
Method in brief: as §1

T6 sequence (O60674 532-1132 limits assumed, species assumed): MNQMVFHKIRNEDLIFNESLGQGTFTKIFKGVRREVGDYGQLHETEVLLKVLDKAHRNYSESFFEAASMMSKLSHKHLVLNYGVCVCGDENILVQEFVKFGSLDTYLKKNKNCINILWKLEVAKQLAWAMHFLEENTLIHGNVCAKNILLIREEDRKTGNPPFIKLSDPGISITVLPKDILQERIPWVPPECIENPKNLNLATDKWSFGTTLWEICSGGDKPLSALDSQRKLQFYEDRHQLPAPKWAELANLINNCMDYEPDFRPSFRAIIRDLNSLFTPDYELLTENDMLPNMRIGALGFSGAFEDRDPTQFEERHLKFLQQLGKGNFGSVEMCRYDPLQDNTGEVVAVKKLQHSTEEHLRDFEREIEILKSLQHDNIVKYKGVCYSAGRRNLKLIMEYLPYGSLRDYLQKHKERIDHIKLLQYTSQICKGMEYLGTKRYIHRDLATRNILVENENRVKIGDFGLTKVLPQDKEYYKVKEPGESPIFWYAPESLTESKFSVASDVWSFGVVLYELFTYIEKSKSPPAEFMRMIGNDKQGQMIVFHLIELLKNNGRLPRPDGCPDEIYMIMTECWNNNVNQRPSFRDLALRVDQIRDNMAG
T1 sequence (P49759 whole entry): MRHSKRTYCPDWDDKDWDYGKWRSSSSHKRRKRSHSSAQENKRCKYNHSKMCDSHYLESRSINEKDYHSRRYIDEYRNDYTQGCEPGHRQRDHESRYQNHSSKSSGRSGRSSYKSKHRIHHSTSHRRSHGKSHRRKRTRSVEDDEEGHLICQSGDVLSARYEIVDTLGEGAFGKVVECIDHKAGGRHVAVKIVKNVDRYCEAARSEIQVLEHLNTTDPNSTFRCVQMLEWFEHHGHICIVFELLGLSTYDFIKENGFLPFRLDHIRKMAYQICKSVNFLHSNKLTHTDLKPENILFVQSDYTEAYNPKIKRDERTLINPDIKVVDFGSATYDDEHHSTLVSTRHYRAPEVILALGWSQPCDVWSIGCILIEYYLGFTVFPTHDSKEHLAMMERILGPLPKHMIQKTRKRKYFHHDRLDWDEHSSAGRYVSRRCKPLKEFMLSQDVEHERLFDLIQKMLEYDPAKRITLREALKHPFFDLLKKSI
T4 sequence (P80192 whole entry, species assumed): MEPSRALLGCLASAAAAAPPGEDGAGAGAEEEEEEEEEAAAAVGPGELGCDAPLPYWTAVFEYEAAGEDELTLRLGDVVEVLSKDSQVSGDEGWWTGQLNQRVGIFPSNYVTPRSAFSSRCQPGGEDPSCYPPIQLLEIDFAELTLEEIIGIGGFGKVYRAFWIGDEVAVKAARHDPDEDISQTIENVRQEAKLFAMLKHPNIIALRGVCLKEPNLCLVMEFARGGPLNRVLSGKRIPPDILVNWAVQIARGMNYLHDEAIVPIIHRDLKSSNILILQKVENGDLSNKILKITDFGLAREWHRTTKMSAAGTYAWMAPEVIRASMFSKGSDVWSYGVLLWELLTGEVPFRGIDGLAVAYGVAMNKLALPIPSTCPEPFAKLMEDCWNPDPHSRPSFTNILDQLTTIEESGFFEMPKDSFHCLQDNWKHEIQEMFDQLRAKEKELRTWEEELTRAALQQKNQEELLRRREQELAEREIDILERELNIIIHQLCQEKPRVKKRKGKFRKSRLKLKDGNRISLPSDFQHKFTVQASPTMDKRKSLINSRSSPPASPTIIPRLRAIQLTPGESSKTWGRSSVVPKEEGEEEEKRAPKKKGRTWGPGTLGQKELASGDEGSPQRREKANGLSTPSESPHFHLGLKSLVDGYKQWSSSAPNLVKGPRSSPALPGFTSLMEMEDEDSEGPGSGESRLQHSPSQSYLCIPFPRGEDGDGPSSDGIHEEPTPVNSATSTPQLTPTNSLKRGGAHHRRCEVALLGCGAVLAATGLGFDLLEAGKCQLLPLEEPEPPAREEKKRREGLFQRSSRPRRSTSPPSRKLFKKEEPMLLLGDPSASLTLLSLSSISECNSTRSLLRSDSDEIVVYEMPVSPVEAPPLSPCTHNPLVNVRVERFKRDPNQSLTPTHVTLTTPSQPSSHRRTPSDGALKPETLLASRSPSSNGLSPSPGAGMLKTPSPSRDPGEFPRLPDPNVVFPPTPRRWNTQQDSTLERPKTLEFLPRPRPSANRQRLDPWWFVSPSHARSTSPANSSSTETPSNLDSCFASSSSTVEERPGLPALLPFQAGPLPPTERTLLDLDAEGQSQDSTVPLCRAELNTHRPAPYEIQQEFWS
Chain of EPHA2 (P29317 24-976, species assumed): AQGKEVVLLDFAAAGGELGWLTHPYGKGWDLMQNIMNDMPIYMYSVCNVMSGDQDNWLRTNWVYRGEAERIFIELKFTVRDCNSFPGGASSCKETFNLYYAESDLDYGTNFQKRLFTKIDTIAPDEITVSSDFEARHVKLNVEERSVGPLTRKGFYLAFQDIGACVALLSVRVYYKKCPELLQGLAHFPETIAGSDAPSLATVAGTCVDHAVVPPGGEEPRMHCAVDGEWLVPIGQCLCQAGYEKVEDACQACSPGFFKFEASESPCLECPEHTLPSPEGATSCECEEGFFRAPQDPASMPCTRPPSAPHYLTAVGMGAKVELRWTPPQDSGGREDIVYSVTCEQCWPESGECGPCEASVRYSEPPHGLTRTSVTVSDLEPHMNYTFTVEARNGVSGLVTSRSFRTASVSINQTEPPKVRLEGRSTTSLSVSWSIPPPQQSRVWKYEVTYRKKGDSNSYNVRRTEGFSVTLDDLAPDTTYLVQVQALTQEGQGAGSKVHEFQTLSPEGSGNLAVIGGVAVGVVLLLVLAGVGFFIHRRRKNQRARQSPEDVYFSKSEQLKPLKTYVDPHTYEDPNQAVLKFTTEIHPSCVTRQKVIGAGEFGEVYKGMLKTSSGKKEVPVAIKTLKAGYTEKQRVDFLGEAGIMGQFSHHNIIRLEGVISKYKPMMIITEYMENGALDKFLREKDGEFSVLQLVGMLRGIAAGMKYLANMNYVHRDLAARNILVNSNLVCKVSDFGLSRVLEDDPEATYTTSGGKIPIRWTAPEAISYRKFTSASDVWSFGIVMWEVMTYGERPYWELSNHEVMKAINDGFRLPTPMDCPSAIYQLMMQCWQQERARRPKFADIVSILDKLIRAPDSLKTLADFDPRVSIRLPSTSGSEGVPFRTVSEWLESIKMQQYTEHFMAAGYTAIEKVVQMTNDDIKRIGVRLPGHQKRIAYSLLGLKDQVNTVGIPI
Chain of PASK (Q96RG2 whole entry): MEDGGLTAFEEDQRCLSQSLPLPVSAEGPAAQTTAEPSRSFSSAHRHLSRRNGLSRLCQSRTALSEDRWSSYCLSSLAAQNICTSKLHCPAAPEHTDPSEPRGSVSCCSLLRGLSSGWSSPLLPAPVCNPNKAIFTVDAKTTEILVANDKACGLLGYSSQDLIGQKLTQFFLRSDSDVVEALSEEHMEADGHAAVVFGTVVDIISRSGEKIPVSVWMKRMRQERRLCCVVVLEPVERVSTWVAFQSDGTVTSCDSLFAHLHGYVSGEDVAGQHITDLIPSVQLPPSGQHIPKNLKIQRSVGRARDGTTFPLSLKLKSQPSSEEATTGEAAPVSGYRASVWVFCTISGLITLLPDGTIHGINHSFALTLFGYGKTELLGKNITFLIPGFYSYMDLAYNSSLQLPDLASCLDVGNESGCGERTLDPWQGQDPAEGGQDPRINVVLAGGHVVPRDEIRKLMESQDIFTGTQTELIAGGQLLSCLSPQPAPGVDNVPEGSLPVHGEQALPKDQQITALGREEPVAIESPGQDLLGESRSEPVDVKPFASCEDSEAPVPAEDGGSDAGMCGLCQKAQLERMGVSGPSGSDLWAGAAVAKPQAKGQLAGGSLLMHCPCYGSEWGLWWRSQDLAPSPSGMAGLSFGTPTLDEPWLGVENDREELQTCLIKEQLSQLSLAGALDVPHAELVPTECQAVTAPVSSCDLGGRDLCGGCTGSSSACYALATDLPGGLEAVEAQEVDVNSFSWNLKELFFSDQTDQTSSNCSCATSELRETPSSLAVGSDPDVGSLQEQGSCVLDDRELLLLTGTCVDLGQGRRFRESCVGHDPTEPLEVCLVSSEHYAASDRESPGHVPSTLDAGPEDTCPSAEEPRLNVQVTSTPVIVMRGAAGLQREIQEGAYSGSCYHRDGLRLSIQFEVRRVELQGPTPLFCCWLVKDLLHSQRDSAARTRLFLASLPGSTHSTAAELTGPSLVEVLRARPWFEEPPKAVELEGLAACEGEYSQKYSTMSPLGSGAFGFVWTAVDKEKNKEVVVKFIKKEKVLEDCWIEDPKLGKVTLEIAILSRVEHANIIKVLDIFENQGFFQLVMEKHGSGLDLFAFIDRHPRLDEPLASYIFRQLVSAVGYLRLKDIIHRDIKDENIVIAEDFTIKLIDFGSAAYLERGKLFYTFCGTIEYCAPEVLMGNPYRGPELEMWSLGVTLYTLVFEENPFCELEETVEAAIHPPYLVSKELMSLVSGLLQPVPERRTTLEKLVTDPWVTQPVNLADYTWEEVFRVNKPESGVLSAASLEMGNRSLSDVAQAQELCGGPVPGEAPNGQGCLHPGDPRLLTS

Compound	inhibition at 1 µM [1] [%]	inhibition at 1 µM [2] [%]	inhibition at 1 µM [3] [%]	inhibition at 1 µM [4] [%]	inhibition at 1 µM [5] [%]	inhibition at 1 µM [6] [%]	inhibition at 1 µM [7] [%]	inhibition at 1 µM [8] [%]
C=CC(=O)N1CCCC(c2c(F)cc(C(N)=O)c3[nH]c4c(c23)CCCCC4)C1 (single isomer, unassigned) [Compound 5-6]	-1.9	-26.4	17.6	-34.8	-0.9	1.8	-21.2	1
C=CC(=O)N1CCC[C@@H](c2c(F)cc(C(N)=O)c3[nH]c4c(c23)CC2(CC4)CC2)C1 [Compound 6-2, (S)-5-(1-acryloylpiperidin-3-yl)-6-fluoro-1,2,4,9-tetrahydrospiro[carbazole-3,1′-cyclopropane]-8-carboxamide]	9.5	-10.4	-24.4	-23.1	28.8	-8	-8.1	-9.4
C=CC(=O)N1CCC[C@@H](c2c(F)cc(C(N)=O)c3[nH]c4c(c23)CCC4)C1 [Compound 10-2, (S)-8-(1-acryloylpiperidin-3-yl)-7-fluoro-1,2,3,4-tetrahydrocyclo-penta[b]indole-5-carboxamide]	-9.6	-11.1	-10.1	6.8	12.3	-8.5	-5	-9.8
